“And” between values parts separate entries of the source, which are not always exact repeats. Equal entries are not always repeated. Where two headings read alike, the source gives them in different places. Non-standard residues stand in square brackets, D forms with d. Residues, ends and D or L forms follow the SMILES beside them. *: point of attachment. Camptothecin(20S-OCO) = CC[C@@]1(OC(=O)*)C(=O)OCc2c1cc1n(c2=O)Cc2cc3ccccc3nc2-1; Dolaproine = CO[C@@H]([C@@H]1CCCN1)[C@@H](C)C(=O)O; Dil = CC[C@H](C)[C@H](NC)[C@@H](CC(=O)O)OC; NMe2Val = CC(C)[C@@H](C(=O)*)N(C)C; PEG5 = NCCOCCOCCOCCOCCOCCC(=O)O; Dab = NCC[C@H](N)C(=O)O
How the values were obtained:
[1] = test system: MDA-MB-231 (ErbB2 negative) cells; assay: Cytotoxic activity, Alamar Blue assay; format: cell-based; details: read-out: Relative IC50 at 96 h (day 4)
Procedure: (§1) Log phase cultures of cell lines SK-OV-3 (ErbB2-expressing), SK-BR-3 (ErbB2-expressing), BT-474 (ErbB2-expressing) and MDA-MB-231 (ErbB2 negative) were collected and cells plated at seeding densities ranging from 1,500 to 12,000 cells/well in 96-well microtiter plates according to pre-determined conditions.
(§2) Assessment of cellular growth was done using Alamar Blue (available from Thermo Fisher Scientific) dye reduction assay. Alamar Blue was added to cells to constitute 10% culture volume. Cells were incubated for 4 to 6 hours, and dye reduction was measured by fluorescence on an EnSpire plate reader (Perkin Elmer). Background corrected fluorescence measurements were transformed in % scale by considering vehicle value as 100% activity (relative measurements). Next, relative measurements were analyzed using GraphPad Prism software to derive relative IC50. All experiments were done twice with 3 replicates per concentration. Error bars: SEM (n=3). Cytotoxicity of AF and AF-Arg on ErbB2-expressing SK-OV-3 and SK-BR-3 cells after 72 and 120 h of treatment. SK-OV-3 and SK-BR-3 cells were seeded the day before treatment in complete culture medium. After overnight resting, cells were treated with decreasing concentrations of test compounds in complete culture medium (AF: 10 μM-1 pM; AF-Arg: 10 μM-1 pM, log-dilution).
(§3) SK-OV-3, SK-BR-3 and MDA-MB-231 cells were seeded the day before treatment in complete culture medium.
BT-474 and MDA-MB-231 cells were seeded the day before treatment in complete culture medium.

[2] = test system: SK-OV-3 (ErbB2-expressing) cells; assay: Cytotoxic activity, Alamar Blue assay; format: cell-based; details: ADC1 study, read-out: Relative IC50 at 96 h (day 4)
[3] = test system: SK-BR-3 (ErbB2-expressing) cells; assay: Cytotoxic activity, Alamar Blue assay; format: cell-based; details: ADC1 study, read-out: Relative IC50 at 96 h (day 4)
[4] = test system: SK-OV-3 (ErbB2-expressing) cells; assay: Cytotoxic activity, Alamar Blue assay; format: cell-based
Procedure: as §1, §2, §3

[5] = test system: SK-BR-3 (ErbB2-expressing) cells; assay: Cytotoxic activity, Alamar Blue assay; format: cell-based
Procedure: as §1, §2, §3

[6] = test system: BT-474 (ErbB2-expressing) cells; assay: Cytotoxic activity, Alamar Blue assay; format: cell-based; details: ADC3 study, read-out: Relative IC50 at 96 h (day 4)
Procedure: as §1
as §2, with “log-dilution). […]” for “log-dilution).”

[7] = target: T1, recombinant human Cathepsin B (Homo sapiens, UniProt P07858); assay: Recombinant human Cathepsin B-induced cleavage (in vitro enzymatic cleavage assay, UHPLC-MS/MS); format: biochemical
T1 construct: purchased R&D Systems (Bio-Techne AG) 953-CY-010
Procedure: Cat B-induced cleavage of the compounds of the present invention was evaluated according to the in vitro enzymatic cleavage assay using recombinant human Cathepsin B and UHPLC-MS/MS analysis as described below.
Reference compounds Cys-MC-Val-Cit-PABC-MMAF and MMAF were used as positive controls.
The in vitro enzymatic assay was conducted at 37° C. with the test compounds at a concentration of 10 μM (2.5 μM when the test compound is an antibody-drug conjugate) in the presence of activated recombinant human Cathepsin B enzyme at 2 μg/mL in a 25 mM MES buffer pH 5.0. The enzymatic cleavage reaction was stopped for each defined time point by mixing an equal volume of acetonitrile+0.1% FA containing an internal standard (warfarine at 8 μM).
Analysis was conducted using a Waters Acquity UPLC System coupled to a Waters Xevo TQ triple quad mass spectrometer. UHPLC was conducted depending on the test compounds with a BEH C8 1.7 μm 100×2.1 mm or BEH C18 1.7 μm 50×2.1 mm or HSS T3 1.7 μm 50×2.1 mm columns heated at 45° C. or 50° C. and fitted with 2 μm insert filter pre-columns (available from Waters), and solvent systems A1 (H2O+0.1% FA) and B1 (acetonitrile+0.1% FA) at a flow rate of 0.6 mL/min and a 10-95% gradient of B1 over 1.9 min.
MS/MS was performed using electrospray ionization (ESI) interface in positive mode and specific MRM transitions for each tested compound.

[8] = SK-OV-3, run 1, 72 h, read-out: Relative IC50 at 72 h (day 3)
[9] = SK-OV-3, run 1, 120 h, read-out: Relative IC50 at 120 h (day 5)
[10] = SK-OV-3, run 2, 72 h, read-out: Relative IC50 at 72 h (day 3)
[11] = SK-OV-3, run 2, 120 h, read-out: Relative IC50 at 120 h (day 5)
[12] = SK-BR-3, run 1, 72 h, read-out: Relative IC50 at 72 h (day 3)
[13] = SK-BR-3, run 1, 120 h, read-out: Relative IC50 at 120 h (day 5)
[14] = SK-BR-3, run 2, 72 h, read-out: Relative IC50 at 72 h (day 3)
[15] = SK-BR-3, run 2, 120 h, read-out: Relative IC50 at 120 h (day 5)

AF-Arg
IC50 ([1]; MDA-MB-231, run 1, 96 h, ADC1 study): 15.2 nM | IC50 ([1]; MDA-MB-231, run 2, 96 h, ADC1 study): 5.84 nM | IC50 ([2]; SK-OV-3, run 1, 96 h): 82.6 nM | IC50 ([2]; SK-OV-3, run 2, 96 h): 244 nM | IC50 ([3]; SK-BR-3, run 1, 96 h): ~92.1 nM | IC50 ([3]; SK-BR-3, run 2, 96 h): 128 nM | IC50 [4, 8]: 180 nM | IC50 [4, 9]: 147 nM | IC50 [4, 10]: 240 nM | IC50 [4, 11]: 205 nM | retained cytotoxic activity relative to the native drug (AF) ([4]; SK-OV-3 cells, 120 h): about 70% | IC50 [5, 12]: ~98 nM | IC50 [5, 13]: 20.9 nM | IC50 [5, 14]: ~111 nM | IC50 [5, 15]: 24.9 nM | retained cytotoxic activity relative to the native drug (AF) ([5]; SK-BR-3 cells, 120 h): greater than 85%

CC[C@H](C)[C@@H]([C@@H](CC(=O)N1CCC[C@H]1[C@H](OC)[C@@H](C)C(=O)N[C@@H](Cc1ccccc1)C(=O)O)OC)N(C)C(=O)[C@@H](NC(=O)[C@H](C(C)C)N(C)C)C(C)C [AF, Auristatin F, reference compound] (NMe2Val-V[Dil][Dolaproine]F-OH)
IC50 [4, 8]: 82.8 nM | IC50 [4, 9]: 100 nM and ~100 nM | IC50 [4, 10]: 154 nM | IC50 [4, 11]: 145 nM | IC50 [5, 12]: 37.4 nM | IC50 [5, 13]: 18.8 nM | IC50 [5, 14]: 53.7 nM | IC50 [5, 15]: 21.8 nM

COc1cc2cc(c1Cl)N(C)C(=O)C[C@H](OC(=O)[C@H](C)N(C)C(=O)CCS)[C@]1(C)O[C@H]1[C@H](C)[C@@H]1C[C@@](O)(NC(=O)O1)[C@H](OC)/C=C/C=C(\C)C2 [DM1, N2′-deacetyl-N2′-(3-mercapto-1-oxopropyl)-maytansine, reference compound]
IC50 ([1]; MDA-MB-231, run 1, 96 h, ADC3 study): 44.2 nM | IC50 ([1]; MDA-MB-231, run 2, 96 h, ADC3 study): 57 nM | IC50 ([6]; BT-474, run 1, 96 h): 2.8 nM | IC50 ([6]; BT-474, run 2, 96 h): 3 nM

CC[C@@]1(OC(=O)NCC[C@H](NC(=O)[C@H](CCCNC(=N)N)NC(=O)[C@H](Cc2ccccc2)NC(=O)CCOCCOCCOCCOCCOCCNC(=O)[C@@H](N)CCCNC(=N)N)C(=O)N[C@@H](Cc2ccccc2)C(=O)O)C(=O)OCc2c1cc1n(c2=O)Cc2cc3ccccc3nc2-1 [Compound 10, Arg-PEG4-Phe-Arg-Dab(CO-CPT)-Phe-OH] (H-R[PEG5]FR[Dab](Camptothecin(20S-OCO))F-OH; N-terminus assumed)
half-life at 10 μM ([7]; human, pH 5, 10 μM test compound, Cathepsin B 2 μg/mL, 25 mM MES buffer pH 5.0, 37° C., read-out: T1/2 Compound): 54 s | Ratio (T1/2 Compound/T1/2 Reference) ([7]; reference Cys-MC-Val-Cit-PABC-MMAF): 0.1
